In data set [1] the test system is lung adenocarcinoma (A549) cells. Description: MTT proliferation assay, A549 cells. The format is cell-based, human. The method, then:
(§1) Human carcinoma cell lines A549 (lung carcinoma), HeLa (cervical carcinoma), SW620 (colorectal adenocarcinoma, metastatic) and CFPAC-1 (pancreatic cancer, derived from metastatic: liver), and normal human foreskin (HFF-1) fibroblasts were obtained from the American Type Culture Collection (ATCC, Manassas, VA, USA). Cells were cultured in humidified atmosphere at 37 °C with 5% CO2. As growth medium, Dulbecco′s modified Eagle medium (DMEM) was used with the addition of fetal bovine serum (10%), L-glutamine (2 mM) and antibiotics: streptomycin ([…]) and penicillin (100 U/mL).
(§2) Cells were seeded onto 96-well microtiter plates at a seeding density of 3000 cells/well for carcinoma cell lines, and 5000 cells/well for normal human fibroblasts. The next day, cells were treated with test agents in five different concentrations (0.01–100 µM) and further incubated for 72 h. […] Following 72 h incubation, the MTT assay was performed and measured absorbances were transformed into percentage of cell growth as described previously. Results were obtained from three independent experiments. IC50 values were calculated using linear regression analysis and results were statistically analyzed by ANOVA, Tukey post-hoc test (p < 0.05).

The subject of data set [2] is cervical carcinoma (HeLa) cells. The experiment in a line: MTT proliferation assay, HeLa cells. Type of data set: cell-based, human. The conditions noted are these: 72 h incubation. The protocol: as §1, §2
Data set [3] relates to ductal pancreatic adenocarcinoma (CFPAC-1) cells. Description: MTT proliferation assay, CFPAC-1 cells. The format is cell-based, human. The protocol:
as §1, §2

For data set [4], the system named is metastatic colorectal adenocarcinoma (SW620) cells. Description: MTT proliferation assay, SW620 cells. Type of data set: cell-based, human. The method, then:
as §1, §2

The test system of data set [5] is normal human foreskin fibroblasts (HFF-1). Description: MTT proliferation assay, normal fibroblasts HFF-1. Type of data set: cell-based. The following applies: 72 h incubation. The method, then: as §1, §2
The subject of data set [6] is human tumor cell lines (A549, HeLa, CFPAC-1, SW620). The experiment in a line: MTT proliferation assay, all evaluated tumor cell lines. The conditions noted are these: read-out: antiproliferative activity (IC50) over the evaluated tumor cell lines. Type of data set: cell-based. The method, then:
as §1, §2

In the next data set the test system is CFPAC-1 cells. The experiment in a line: Annexin V assay for apoptosis detection. Type of data set: cell-based, human. The conditions noted are these: for viability at 3.95 µM / viability at 1.58 µM: Homo sapiens, CFPAC-1, read-out: viable cells (Ann−/PI−). The method, then:
Cells were seeded into 8-well chambers (Lab-tek II Chamber Slides, Thermo Fisher Scientific, Waltham, MA, USA) in a concentration of 2 × 10^4 cells per well and treated with 2 × IC50 and 5 × IC50 concentrations of selected compounds for 48 and 72 h. Staining of the cells was performed by Annexin-V-FITC Staining kit (Santa Cruz Biotechnology, Dallas, TX, USA) according to the manufacturer′s instructions. Cells were visualised by fluorescent microscope (Olympus, Tokyo, Japan) at magnification of 40×.

Where [7] appears, read: Homo sapiens, A549, 72 h incubation.
The mark [8] stands for this setting: Homo sapiens, CFPAC-1, 72 h incubation.
Setting [9] is: Homo sapiens, SW-620, 72 h incubation.
Setting [10] is: 48 h treatment, 1.85 µM (2 × IC50).
Where [11] appears, read: 48 h treatment, 3.95 µM (5 × IC50).
The mark [12] stands for this setting: 72 h treatment, 1.85 µM (2 × IC50).
[13] abbreviates: 72 h treatment, 3.95 µM (5 × IC50).

Where two headings read alike, the source gives them in different places.

In turn, `C#CCOc1ccc(-c2ccc(OCc3cn(CCn4cnc5c(N6CCCCC6)ncnc54)nn3)cc2)cc1` [9f, 6-(piperidin-1-yl)-9-{2-[4-(((4′-(prop-2-yn-1-yloxy)-[1,1′-biphenyl]-4-yl)oxy)methyl)-1H-1,2,3-triazol-1-yl]ethyl}-9H-purine] registered a melting point of 221 to 225 °C. The compound also registered an IC50 in data set [1] (setting [7]) of 9.3 ± 0.1 µM. Besides, the IC50 in data set [2] (Homo sapiens, HeLa) was 3.9 ± 0.69 µM. This compound registered an IC50 in data set [3] (setting [8]) of 2.9 ± 1 µM. The IC50 in data set [4] (setting [9]) was found to be 23.2 ± 3.2 µM. Also, the IC50 in data set [5] is 4.3 µM.
As for `Clc1ncnc2c1ccn2CCn1cc(COc2ccc(-c3ccc(OCc4cn(CCn5ccc6c(Cl)ncnc65)nn4)cc3)cc2)nn1` [5b, 4,4′-Bis{[1-(2-(4-chloro-7H-pyrrolo[2,3-d]pyrimidin-7-yl)ethyl)-1H-1,2,3-triazol-4-yl]-methoxy}-1,1′-biphenyl], the IC50 was 6.3 ± 1.2 µM in data set [1] (setting [7]); > 100 µM in data set [2] (Homo sapiens, HeLa); > 100 µM in data set [3] (setting [8]); > 100 µM in data set [4] (setting [9]); 0.13 µM in data set [5].
As to `c1nc(N2CCCCC2)c2ncn(CCn3cc(COc4ccc(OCc5cn(CCn6cnc7c(N8CCCCC8)ncnc76)nn5)cc4)nn3)c2n1` [9a, 1,4-Bis{[1-(2-(6-(piperidin-1-yl)-9H-purin-9-yl)ethyl)-1H-1,2,3-triazol-4-yl]methoxy}benzene], the IC50 turned out to be 53.5 ± 8 µM in data set [1] (setting [7]); 16.2 ± 0.05 µM in data set [2] (Homo sapiens, HeLa); 9.1 ± 1.3 µM in data set [3] (setting [8]); 43.5 ± 4.4 µM in data set [4] (setting [9]); 0.76 µM in data set [5].
For `c1nc(N2CCCCC2)c2ncn(CCn3cc(COc4ccc(-c5ccc(OCc6cn(CCn7cnc8c(N9CCCCC9)ncnc87)nn6)cc5)cc4)nn3)c2n1` [9b, 4,4′-Bis((1-(2-(6-(piperidin-1-yl)-9H-purin-9-yl)ethyl)-1H-1,2,3-triazol-4-yl)methoxy)-1,1′-biphenyl], the IC50 in data set [1] (setting [7]) came to 12.3 ± 3.4 µM; in data set [2] (Homo sapiens, HeLa), 3.8 ± 0.81 µM; in data set [3] (setting [8]), 8.1 ± 1.3 µM; in data set [4] (setting [9]), 5.2 ± 2.2 µM; in data set [5], 0.79 µM.
In turn, `c1nc(N2CCCC2)c2ccn(CCn3cc(COc4ccc(OCc5cn(CCn6ccc7c(N8CCCC8)ncnc76)nn5)cc4)nn3)c2n1` [7a, 1,4-Bis{[1-(2-(4-(pyrrolidin-1-yl)-7H-pyrrolo[2,3-d]pyrimidin-7-yl)ethyl)-1H-1,2,3-triazol-4-yl]methoxy}benzene] had a melting point of 193 to 195 °C. The compound further displayed an IC50 in data set [1] (setting [7]) of 49.3 ± 6.4 µM. For the same compound, it took 6.4 ± 0.35 µM to reach half-maximal inhibition in data set [2] (Homo sapiens, HeLa) (IC50). The compound further yielded an IC50 in data set [3] (setting [8]) of 25.8 ± 0.98 µM. This compound also displayed an IC50 in data set [4] (setting [9]) of 78 ± 2.1 µM. Also, the midpoint of inhibition in data set [5], the IC50, lay at 0.81 µM.
Take “{1-[2-(4-(Piperidin-1-yl)-7H-pyrrolo[2,3-d]pyrimidin-7-yl)ethyl]-1H-1,2,3-triazol-4-yl}methyl ether [6d]”: the IC50 was 51.9 ± 3 µM in data set [1] (72 h incubation); 28.2 ± 9 µM in data set [2]; 37.9 ± 3.7 µM in data set [3] (72 h incubation); 45.5 ± 3.3 µM in data set [4] (72 h incubation); 28.2 to 65.2 µM in data set [6].
Consider `C#CCOc1ccc(-c2ccc(OCc3cn(CCn4ccc5c(Cl)ncnc54)nn3)cc2)cc1` [5f, 4-chloro-7-{2-[4-(((4′-(prop-2-yn-1-yloxy)-[1,1′-biphenyl]-4-yl)oxy)methyl)-1H-1,2,3-triazol-1-yl]ethyl}-7H-pyrrolo[2,3-d]pyrimidine], for which the IC50 in data set [1] (setting [7]) came to 6.9 ± 1.1 µM; in data set [2] (Homo sapiens, HeLa), 0.98 ± 0.44 µM; in data set [3] (setting [8]), 0.79 ± 0.03 µM; in data set [4] (setting [9]), 8 ± 1.8 µM; in data set [5], 0.62 µM. Besides, the “mode of cell death in CFPAC-1 cells” value in the data set with CFPAC-1 cells (48 and 72 h, 2 × IC50 and 5 × IC50) was “induces apoptosis and primary necrosis in CFPAC-1 cells in a concentration- and time-dependent manner”. In addition, the “early apoptotic cells (Ann+)” value was determined as 11.76 ± 3.58% in the data set with CFPAC-1 cells (setting [10]), 21.21 ± 1.35% in the data set with CFPAC-1 cells (setting [11]), 30.36 ± 1.49% in the data set on CFPAC-1 cells (setting [12]) and 39.63 ± 8.54% with CFPAC-1 cells (setting [13]). For the same compound, the “late apoptotic/primary necrotic cells (Ann+/PI+)” value is recorded as 5.88 ± 1.44% in the data set on CFPAC-1 cells (setting [10]), 6.56 ± 0.24% in the data set on CFPAC-1 cells (setting [11]), 10.71 ± 4.89% with CFPAC-1 cells (setting [12]) and 26.14 ± 2.57% with CFPAC-1 cells (setting [13]). Also, the “secondary necrotic cells (PI+)” value in the data set on CFPAC-1 cells (setting [10]) came out at 2.72 ± 0.56%; in the data set with CFPAC-1 cells (setting [11]) it was 4.05 ± 1.22%; in the data set on CFPAC-1 cells (setting [12]), 2.68 ± 0.37%; with CFPAC-1 cells (setting [13]), 6.3 ± 2.45%. Besides, the “decrease in cell viability vs control” value in the data set with CFPAC-1 cells (48 h treatment, 5 × IC50) was 28.4%. The “increase in the percentage of cells in early apoptosis vs control” value with CFPAC-1 cells (48 h treatment, 5 × IC50) was found to be 21.21%. Besides, the “increase in early apoptotic cells vs control” value with CFPAC-1 cells (72 h treatment, 2 × IC50) was 24.08%; in the data set on CFPAC-1 cells (72 h treatment, 5 × IC50), 33.35%. In addition, in the data set on CFPAC-1 cells (72 h treatment, 5 × IC50), the “rise in late apoptotic/primary necrotic cells vs control” value is 26.14%. Besides, the viability at 3.95 µM with CFPAC-1 cells (setting [11]) stood at 68.2 ± 0.94%; with CFPAC-1 cells (setting [13]), 27.9 ± 3.23%. Moreover, the viability at 1.58 µM in the data set on CFPAC-1 cells (48 h treatment) came to 79.6 ± 2.57%; with CFPAC-1 cells (72 h treatment), 56.2 ± 6.56%.
For `c1nc(N2CCCC2)c2ccn(CCn3cc(CCCc4cn(CCn5ccc6c(N7CCCC7)ncnc65)nn4)nn3)c2n1` [7c, 1,3-Bis{1-[2-(4-(pyrrolidin-1-yl)-7H-pyrrolo[2,3-d]pyrimidin-7-yl)ethyl]-1H-1,2,3-triazol-4-yl}propane], the melting point fell in the range of 170 to 172 °C. Besides, the IC50 in data set [1] (setting [7]) was > 100 µM. The same compound yielded an IC50 in data set [2] (Homo sapiens, HeLa) of 80 ± 1.5 µM. For the same compound, the IC50 in data set [3] (setting [8]) was 65.3 ± 5.7 µM. Moreover, in data set [4] (setting [9]), the IC50 was > 100 µM.
For `C#CCOc1ccc(OCc2cn(CCn3cnc4c(N5CCCCC5)ncnc43)nn2)cc1` [9e, 6-(piperidin-1-yl)-9-{2-[4-((4-(prop-2-yn-1-yloxy)phenoxy)methyl)-1H-1,2,3-triazol-1-yl]ethyl}-9H-purine], the melting point was in the range of 233 to 236 °C. Further, it took 58.7 ± 10.2 µM to reach half-maximal inhibition in data set [1] (setting [7]) (IC50). Half-maximal inhibition in data set [2] (Homo sapiens, HeLa) (IC50) was put at 17.1 ± 1.3 µM. In addition, in data set [3] (setting [8]), the IC50 came to 23.4 ± 4.2 µM. The same compound registered an IC50 in data set [4] (setting [9]) of 35.7 ± 0.79 µM.
Compound `c1nc(N2CCCCC2)c2ccn(CCn3cc(CCCc4cn(CCn5ccc6c(N7CCCCC7)ncnc65)nn4)nn3)c2n1` [6c, 1,3-Bis{1-[2-(4-(piperidin-1-yl)-7H-pyrrolo[2,3-d]pyrimidin-7-yl)ethyl]-1H-1,2,3-triazol-4-yl}propane] displayed a melting point of 145 to 147 °C. For the same compound, the IC50 in data set [1] (setting [7]) was 59.3 ± 4.9 µM. Besides, inhibition in data set [2] (Homo sapiens, HeLa) was half-maximal at 33.7 ± 8.9 µM (IC50). The compound also registered an IC50 in data set [3] (setting [8]) of 48.7 ± 1.5 µM. This compound also yielded an IC50 in data set [4] (setting [9]) of 65.2 ± 4.8 µM. Also, in data set [6] (Homo sapiens), the IC50 was 28.2 to 65.2 µM.

(Values after publication PMC8199500, “Novel Bis- and Mono-Pyrrolo[2,3-d]pyrimidine and Purine Derivatives: Synthesis, Computational Analysis and Antiproliferative Evaluation” (Molecules, 2021).)
